Measurements reported in patent US20110146678A1, “PROCESS FOR IMPROVING CRYSTALLINITY” (priority 2008, published 2011).

Legend:
Format in all cases: physicochemical
[1] = Aerosolisation efficiency of binary DPI formulations (0.4% w/w FP in lactose), NGI via Rotahaler; conditions: binary DPI, Rotahaler 60 Lpm
Experimental: The aerosolization efficiency of samples 2, 3 and 4 of engineered FP were evaluated using binary formulations containing 0.4% w/w FP.
Each binary formulation contained 0.016 g FP and 3.984 g lactose (ML001, DMV-Fonterra, Vehgel, Netherlands) and was prepared by geometric mixing. Following this, the blend was subsequently prepared using a Turbula T2F (Willy A Bachofen A G, Basel, Switzerland) at 46 rpm for 45 minutes.
Following content uniformity testing, 12.5±1 mg of each blend was loaded into size 3 hydroxypropylmethyl cellulose capsules (HPMC, Shionogi Qualicaps S A, Basingstoke, UK). The capsules were stored at 44% RH for 24 h prior to in vitro performance testing.
(§1) Testing was performed using a Next Generation Impactor (NGI) with pre-separator, which was connected to a vacuum pump (GE Motors). Prior to testing, the pre-separator was filled with 15 ml of mobile phase and the cups of the NGI cups were coated with 1% v/v silicone oil in hexane to eliminate particle bounce.
For each experiment, four individual capsules of the same formulation were discharged into the NGI at 60 Lpm for 4 s via a Rotahaler (GSK, Ware, UK) DPI device. Additionally, blisters from a Flixotide Diskus (GSK, Ware, UK) were emptied and loaded into size 3 HPMS capsules and discharged into a NGI at 60 Lpm1 for 4 s via a Rotahaler. Following aerosolization, the NGI apparatus was dismantled and the inhaler, capsules and each part of the NGI was washed down into known volumes of HPLC mobile phase.
The mass of drug deposited on each part of the NGI was determined by HPLC. This protocol was repeated three times for each blend, following which, the mass median aerodynamic diameter (MMAD), geometric standard deviation (GSD), fine particle dose (FPD) and fine particle fraction of the emitted dose (FPFED) were determined. The FPD represented the mass of drug that was collected on stages 3-8 of the NGI.

[2] = Aerosolisation efficiency of combination DPI formulations FP/micronized SX 500/50, NGI via Rotahaler and Cyclohaler, incl. 1 month storage; conditions: for % FPF under stressed storage conditions: 1 month at 25° C./75% RH; for FPF of FP compared with micronized sample: T=0, Cyclohaler; for FPF of FP compared with micronized sample / FPF of FP compared with other samples: 500/50 blend with micronized SX; for FPF of FP compared with other samples: T=0, Rotahaler
Experimental: The aerosolisation efficiency of samples 2, 3 and 4 of fluticasone propionate (FP) produced as described in Example 2 was assessed in combination dry powder inhaler (DPI) formulations containing micronized salmeterol xinafoate (SX) using a Rotahaler® unit dose DPI device (GSK, Ware, UK) and Cyclohaler® unit dose DPI device (TEVA Pharmaceuticals, Netherlands).
The aerosolization efficiency was evaluated in combination DPI formulations also containing micronized SX. Each combination formulation contained 0.16000 g FP (sample 2, 3 or 4), 0.02320 g SX and 3.8168 g lactose (ML001, DMV-Fonterra, Vehgel, Netherlands) and was prepared by geometric mixing. Following this, each blend was subsequently prepared using a Turbula T2F (Willy A Bachofen A G, Basel, Switzerland) at 46 rpm for 45 minutes. The blend strength of each combination formulation equated to 500 μg FP and 50 μg Salmeterol base. This matches the dose strength of Advair 500/50. A sample of Advair 500/50 was used as the micronized example. The aerolisation efficiency of four different formulations containing FP samples 2, 3, 4 or micronized FP was measured.
Following content uniformity testing, 12.5±0.5 mg of each blend was loaded into size 3 hydroxypropylmethyl cellulose capsules (HPMC, Shionogi Qualicaps S A, Basingstoke, UK). The capsules were stored at 44% RH for 24 h prior to in vitro performance testing.
as §1
For each experiment, two individual capsules of the same formulation were discharged into the NGI at 60 Lpm for 4 s via a Rotahaler (GSK, Ware, UK) and 90 Lpm for 2.8 s via a Cyclohaler (TEVA Pharmaceuticals, Netherlands) to ensure both devices were operated such that 4 kPa pressure drop was generated.
Additionally, blisters from a commercially available Advair 500/50 Diskus (GSK, USA) were emptied and 12.5 mg of formulation was transferred into size 3 HPMC capsules and discharged into a NGI at 60 Lpm for 4 s via a Rotahaler and at 90 Lpm for 2.8 s via a Cyclohaler.
Following aerosolization, the NGI apparatus was dismantled and the inhaler, capsules and each part of the NGI was washed down into known volumes of HPLC mobile phase. The mass of drug deposited on each part of the NGI was determined by HPLC. This protocol was repeated three times for each blend, following which, the fine particle dose (FPD) and fine particle fraction of the loaded dose (FPFLD) were determined. The FPD represented the mass of drug that was collected on stages 3-8 of the NGI.

[3] = Specific surface area by five-point BET nitrogen adsorption
Experimental: The surface roughness and surface area of micronized Fluticasone Propionate (FP), sample 3 of FP prepared by the current invention and sample 4 of FP, as described in Example 2, were determined using atomic force microscopy (AFM) and BET surface area analysis, respectively. The roughness of imaged areas was quantified using the mean (Ra) and root mean square (Rq) of the variations in the height of the imaged surface. Furthermore, the surface area of samples was determined by a five-point BET nitrogen adsorption analysis. The specific surface areas of the FP samples were measured using a Gemini 2360 surface area analyser (Micromeritics Instrument Corporation, Norcross, USA). A five-point BET nitrogen adsorption analysis was carried out after degassing the samples for 24 hours in a FlowPrep 060 degasser (Micromeritics Instrument Corporation, Norcross, USA).

[4] = Surface roughness by TappingMode AFM; conditions: 1 μm×1 μm areas, SD in brackets; for Ra(± nm): mean surface roughness; for Rq(± nm): root mean square roughness
Experimental: The degree of corrugation and surface morphology of samples was quantified using AFM. The surface topography and roughness measurements of particles of this invention were investigated using a Nanoscope IIIa controller, a Multimode AFM and a J-type scanner (all DI, Santa Babara, Calif., USA). All AFM surface topography images were recorded in Tapping Mode operation, in which, imaging was conducted using TESP Olympus tips (Di, Cambridge, UK) at a scan rate of 1 Hz. Surface roughness measurements were analysed over a 1 μm×1 μm area. To quantify the variations in the surface properties of the crystal surfaces, the root-mean-squared surface roughness measurement (Rq) and the mean surface roughness (Ra) of the height deviations of the surface asperities were computed.
The surface roughness and surface area of micronized Fluticasone Propionate (FP), sample 3 of FP prepared by the current invention and sample 4 of FP, as described in Example 2, were determined using atomic force microscopy (AFM) and BET surface area analysis, respectively. The roughness of imaged areas was quantified using the mean (Ra) and root mean square (Rq) of the variations in the height of the imaged surface. Furthermore, the surface area of samples was determined by a five-point BET nitrogen adsorption analysis.
The surface topography of the FP samples was investigated with TappingMode™ atomic force microscopy (AFM) using a Multimode AFM, J-type scanner, Nanoscope IIIa controller (all from DI, Cambridge, UK) and a silicon tip (model number OMCL-AC240TS, Olympus, Japan) to image three randomly selected 1 μm×1 μm square areas on the surface of particles of each material with a resolution of 512×512 pixels and a scan rate of 1 Hz. The roughness of imaged areas was quantified using the mean (Ra) and root mean square (Rq) of the variations in the height of the imaged surface, as calculated by the AFM software using the following equations: […]
where np is the number of points in the image and yi is the distance of point i from the centre line.

With `CCC(=O)O[C@]1(C(=O)SCF)[C@H](C)C[C@H]2[C@@H]3C[C@H](F)C4=CC(=O)C=C[C@]4(C)[C@@]3(F)[C@@H](O)C[C@@]21C` [Sample 2, Fluticasone propionate] the “percentage fine particle fraction (% FPF) compared with micronized FP” value ([1]; listed as Samples 2) was “significantly greater than that of micronized FP”, the “% FPF under stressed storage conditions” value [2] was “not significantly affected” and the “FPF of FP compared with micronized sample” value [2] was “greater than the micronized sample”. For the same compound, the “FPF of FP compared with other samples” value [2] was “greater than sample 4 and the micronized sample”.

For `CCC(=O)O[C@]1(C(=O)SCF)[C@H](C)C[C@H]2[C@@H]3C[C@H](F)C4=CC(=O)C=C[C@]4(C)[C@@]3(F)[C@@H](O)C[C@@]21C` [Sample 3, Fluticasone propionate], the “Surface Area” value [3] was 10.79 m^2/g, the “percentage fine particle fraction (% FPF) compared with micronized FP” value [1] was “significantly greater than that of micronized FP” and the “Ra(± nm)” value [4] was 53.79 (2.11) nm. The “Rq(± nm)” value [4] was 72.11 (1.35) nm, the “% FPF under stressed storage conditions” value [2] was “not significantly affected” and the “FPF of FP compared with micronized sample” value [2] was “greater than the micronized sample”. The “FPF of FP compared with other samples” value [2] was “greater than sample 4 and the micronized sample”.

With `CCC(=O)O[C@]1(C(=O)SCF)[C@H](C)C[C@H]2[C@@H]3C[C@H](F)C4=CC(=O)C=C[C@]4(C)[C@@]3(F)[C@@H](O)C[C@@]21C` [Sample 4, fluticasone propionate, reference compound] the “Surface Area” value [3] was 7.49 m^2/g, the “percentage fine particle fraction (% FPF) compared with micronized FP” value [1] was “significantly lower % FPF than micronized FP” and the “Ra(± nm)” value [4] was 11.20 (1.55) nm. The “Rq(± nm)” value [4] was 16.52 (3.13) nm, the “% FPF under stressed storage conditions” value [2] was “not significantly affected” and the “FPF of FP compared with micronized sample” value [2] was “greater than the micronized sample”. For the same compound, the “FPF of FP compared with other samples” value [2] was “poor performance”.

In the case of `CCC(=O)O[C@]1(C(=O)SCF)[C@H](C)C[C@H]2[C@@H]3C[C@H](F)C4=CC(=O)C=C[C@]4(C)[C@@]3(F)[C@@H](O)C[C@@]21C` [micronized FP, Fluticasone Propionate], the “Surface Area” value [3] is reported as 6.55 m^2/g, the “Ra(± nm)” value [4] is reported as 30.97 (12.25) nm and the “Rq(± nm)” value [4] is reported as 45.07 (11.76) nm. For the same compound, the “% FPF under stressed storage conditions” value [2] was “not significantly affected”.
